Consider 17 molecules from patent US20260109694A1, “HETEROCYCLIC COMPOUNDS AND USES THEREOF” (Kumquat Biosciences Inc., priority 2023, published 2026).

The target in one assay is T1, PTPN2 (Homo sapiens, UniProt P17706).
T1 sequence (P17706 1-415): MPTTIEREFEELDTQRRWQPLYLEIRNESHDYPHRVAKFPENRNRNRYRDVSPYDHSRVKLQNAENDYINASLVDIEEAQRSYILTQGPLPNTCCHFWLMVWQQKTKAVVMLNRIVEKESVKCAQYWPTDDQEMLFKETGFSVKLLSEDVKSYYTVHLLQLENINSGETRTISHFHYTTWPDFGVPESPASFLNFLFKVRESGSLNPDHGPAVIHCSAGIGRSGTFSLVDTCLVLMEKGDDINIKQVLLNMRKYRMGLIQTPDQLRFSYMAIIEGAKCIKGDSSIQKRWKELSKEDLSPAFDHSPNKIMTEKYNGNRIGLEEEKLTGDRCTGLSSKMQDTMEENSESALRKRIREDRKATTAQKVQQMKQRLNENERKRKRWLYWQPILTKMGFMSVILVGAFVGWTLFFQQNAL
The assay can be described thus: Phosphatase activity assay (DiFMUP substrate). The format is biochemical. The following applies: value bin printed in column head. On the procedure:
(§1) The selectivity and potency of a small molecule PTPN2 inhibitor as provided herein against one or more protein tyrosine phosphatase (PTP) enzymes, and specifically against PTPN2, is assessed in various ways. The one or more PTP enzymes comprise Mycobacterium protein tyrosine phosphatase A (mPTPA), Mycobacterium protein tyrosine phosphatase B (mPTPB), PTPN1 (i.e., PTP1B), PTPN2 (i.e., TC-PTP), PTPN22 (i.e., LYP), SHP-1, SHP-2, FAP-1, Meg2, HePTP, Laforin, VHX, VHR, LMWPTP, Cdc14A, LAR, CD45, PTPRG, a fragment thereof, a variant thereof, and a combination thereof. Selectivity and potency of a small molecule PTPN2 inhibitor is evaluated using a PTP activity inhibition assay. The assay is performed using a buffer comprising 50 mM HEPES buffer pH 7.5, 150 mM NaCl, 0.5 mM EDTA, 1 mM DTT, 0.001% Tween-20.
(§2) The assay is performed using a phosphated substrate, e.g., 10 mM 6,8-Difluoro-4-Methylumbelliferyl Phosphate (DIFMUP) that is stored at −20° C. Alternatively or in addition to, the assay is performed using other phosphated substrate (e.g., fluorescein diphosphate). Each PTP enzyme is diluted in the assay buffer
(§3) The assay can be carried out at room temperature in multiplate format, e.g., using 384 well plates. A small molecule PTPN2 inhibitor dissolved in DMSO at one of 10 concentrations from a serial dilution or DMSO alone for control is added to each well. A mixture of the assay buffer comprising PTP enzyme (e.g., 0.025 ng/ul PTPN2) is added to each well and mixed for approximately 2 minutes. The reaction is initiated by adding DiFMUP diluted in the assay buffer to a final concentration of approximately 45 µM DiFMUP in PTPN2 assay. For each PTP enzyme, DiFMUP is added at the Km (Michaelis constant) of the enzyme that had been independently determined. The phosphatase activity of the PTP enzyme is assessed by monitoring appearance of a fluorescent product (6,8-difluoro-7-hydroxyl-4-coumarin (DiFMU) from DiFMUP) continuously for about 15 to 30 minutes, using the INFINITE M1000Pro plate reader (Tecan) with excitation at 360 nm and emission at 450 nm (cutoff filter at 435 nm) for DiFMU. Each assay is performed at least in duplicate. The rate (e.g., the initial rate) of DiFMU formation is plotted against the concentration of the small molecule PTPN2 inhibitor, and the data is fitted (e.g., using a 4-parameter equation) to determine the inflection point of the fit as the IC50 of the small molecule PTPN2 inhibitor for a specific enzyme. Utilizing this assay, the ability of the compounds in Table 1 to inhibit PTPN2 and PTP1B has been assessed. Table 3 summarizes the IC50 values.

The next assay addresses T2, PTP1B (Homo sapiens, UniProt P18031).
T2 sequence (P18031 1-435): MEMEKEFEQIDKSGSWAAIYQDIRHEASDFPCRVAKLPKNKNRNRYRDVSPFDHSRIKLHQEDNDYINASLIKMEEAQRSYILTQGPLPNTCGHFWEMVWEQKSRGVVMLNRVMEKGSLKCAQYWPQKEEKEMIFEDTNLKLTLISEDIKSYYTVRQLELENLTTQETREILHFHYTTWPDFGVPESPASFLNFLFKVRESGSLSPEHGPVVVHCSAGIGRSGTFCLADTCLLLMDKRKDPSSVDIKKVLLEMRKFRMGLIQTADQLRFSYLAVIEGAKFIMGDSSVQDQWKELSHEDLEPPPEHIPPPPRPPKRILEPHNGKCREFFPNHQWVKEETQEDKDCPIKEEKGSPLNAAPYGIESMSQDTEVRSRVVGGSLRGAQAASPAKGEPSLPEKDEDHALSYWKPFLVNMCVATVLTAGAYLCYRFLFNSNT
The assay can be described thus: Phosphatase activity assay (DiFMUP substrate). The format is biochemical. The note with it: value bin printed in column head. As to the method: as §1, §2, §3

Each structure is given as a SMILES string.

In general, IC50 refers to the midpoint of a concentration-inhibition curve. On to `CC(C)OC(=O)N1CC(c2ccc(O)c(N3CC(=O)NS3(=O)=O)c2F)=C[C@H]1CCC1CCC1` [Compound 166, isopropyl (R)-2-(2-cyclobutylethyl)-4-(3-(1,1-dioxido-4-oxo-1,2,5-thiadiazolidin-2-yl)-2-fluoro-4-hydroxyphenyl)-2,5-dihydro-1H-pyrrole-1-carboxylate], for which the concentration for half-maximal inhibition (IC50) at PTPN2 and on PTP1B was not above 1000 nM throughout.

Consider `O=C1CN(c2c(O)cc(C3=CC(CCC4CC4)NC3)cc2F)S(=O)(=O)N1` (stereo not shown) [Compound 105, 5-(4-(5-(2-cyclopropylethyl)-2,5-dihydro-1H-pyrrol-3-yl)-2-fluoro-6-hydroxyphenyl)-1,2,5-thiadiazolidin-3-one 1,1-dioxide], for which the IC50 at PTPN2 and on PTP1B was not above 1000 nM each time.

`O=C1CN(c2c(O)ccc(C3=C[C@@H](CCC4CC4)NC3)c2F)S(=O)(=O)N1` [Compound 113, (R)-5-(3-(5-(2-cyclopropylethyl)-2,5-dihydro-1H-pyrrol-3-yl)-2-fluoro-6-hydroxyphenyl)-1,2,5-thiadiazolidin-3-one 1,1-dioxide]: the 50% inhibitory concentration (IC50) on PTPN2 and at PTP1B was not above 1000 nM throughout.

As to `O=C1CN(c2c(O)ccc(C3=C[C@H](CCC4CCC4)NC3)c2F)S(=O)(=O)N1` [Compound 134, (S)-5-(3-(5-(2-cyclobutylethyl)-2,5-dihydro-1H-pyrrol-3-yl)-2-fluoro-6-hydroxyphenyl)-1,2,5-thiadiazolidin-3-one 1,1-dioxide], the IC50 on PTPN2 and on PTP1B was not above 1000 nM throughout.

On to `CCC[C@@H]1C=C(c2ccc(O)c(N3CC(=O)NS3(=O)=O)c2F)CN1` [Compound 114, (R)-5-(2-fluoro-6-hydroxy-3-(5-propyl-2,5-dihydro-1H-pyrrol-3-yl)phenyl)-1,2,5-thiadiazolidin-3-one 1,1-dioxide], for which the IC50 on PTPN2 and at PTP1B was not above 1000 nM in each case.

For `CC(OC(=O)[C@H](N)C(C)C)OC(=O)N1CC(c2ccc(O)c(N3CC(=O)NS3(=O)=O)c2F)=C[C@H]1CCC1CCC1` (stereo partly drawn) [Compound 147, 1-((D-valyl)oxy)ethyl (2R)-2-(2-cyclobutylethyl)-4-(3-(1,1-dioxido-4-oxo-1,2,5-thiadiazolidin-2-yl)-2-fluoro-4-hydroxyphenyl)-2,5-dihydro-1H-pyrrole-1-carboxylate], the half-maximal inhibitory concentration (IC50) on PTPN2 and at PTP1B was not above 1000 nM throughout.

On to `O=C1CN(c2c(O)cc(C3CCCNC3)cc2F)S(=O)(=O)N1` (stereo not shown) [Compound 138, 5-(2-fluoro-6-hydroxy-4-(piperidin-3-yl)phenyl)-1,2,5-thiadiazolidin-3-one 1,1-dioxide], for which the half-maximal inhibitory concentration (IC50) at PTPN2 and on PTP1B was not above 1000 nM each time.

`CC(OC(=O)[C@@H](N)C(C)C)OC(=O)N1CC(c2ccc(O)c(N3CC(=O)NS3(=O)=O)c2F)=C[C@H]1CCC1CCC1` (stereo partly drawn) [Compound 158, 1-((L-valyl)oxy)ethyl (2R)-2-(2-cyclobutylethyl)-4-(3-(1,1-dioxido-4-oxo-1,2,5-thiadiazolidin-2-yl)-2-fluoro-4-hydroxyphenyl)-2,5-dihydro-1H-pyrrole-1-carboxylate]: the 50% inhibitory concentration (IC50) at PTPN2 and at PTP1B was not above 1000 nM each time.

For the molecule `O=C1CN(c2c(O)ccc(C3=CC(C4CC4)NC3)c2F)S(=O)(=O)N1` (stereo not shown) [Compound 109, 5-(3-(5-cyclopropyl-2,5-dihydro-1H-pyrrol-3-yl)-2-fluoro-6-hydroxyphenyl)-1,2,5-thiadiazolidin-3-one 1,1-dioxide], the half-inhibitory concentration (IC50) at PTPN2 and on PTP1B was not above 1000 nM each time.

`N#CCC1C=C(c2ccc(O)c(N3CC(=O)NS3(=O)=O)c2F)CN1` (stereo not shown) [Compound 107, 2-(4-(3-(1,1-dioxido-4-oxo-1,2,5-thiadiazolidin-2-yl)-2-fluoro-4-hydroxyphenyl)-2,5-dihydro-1H-pyrrol-2-yl)acetonitrile]: the IC50 at PTPN2 and at PTP1B was not above 1000 nM throughout.

In the case of `O=C1CN(c2c(O)cc(C3=CCNC3)cc2F)S(=O)(=O)N1` [Compound 128, 5-(4-(2,5-dihydro-1H-pyrrol-3-yl)-2-fluoro-6-hydroxyphenyl)-1,2,5-thiadiazolidin-3-one 1,1-dioxide], the IC50 on PTPN2 and on PTP1B was not above 1000 nM throughout.

As for `CC(OC(=O)C1CCCC1)OC(=O)N1CC(c2ccc(O)c(N3CC(=O)NS3(=O)=O)c2F)=C[C@H]1CCC1CCC1` (stereo partly drawn) [Compound 163, 1-((cyclopentanecarbonyl)oxy)ethyl (2R)-2-(2-cyclobutylethyl)-4-(3-(1,1-dioxido-4-oxo-1,2,5-thiadiazolidin-2-yl)-2-fluoro-4-hydroxyphenyl)-2,5-dihydro-1H-pyrrole-1-carboxylate], the IC50 on PTPN2 and at PTP1B was not above 1000 nM in each case.

As to `CC(OC(=O)C(C)C)OC(=O)N1CC(c2ccc(O)c(N3CC(=O)NS3(=O)=O)c2F)=C[C@H]1CCC1CCC1` (stereo partly drawn) [Compound 156, 1-(isobutyryloxy)ethyl (2R)-2-(2-cyclobutylethyl)-4-(3-(1,1-dioxido-4-oxo-1,2,5-thiadiazolidin-2-yl)-2-fluoro-4-hydroxyphenyl)-2,5-dihydro-1H-pyrrole-1-carboxylate], the IC50 on PTPN2 and on PTP1B was not above 1000 nM each time.

Take `CC(C)CC[C@H]1C=C(c2ccc(O)c(N3CC(=O)NS3(=O)=O)c2F)CN1C(=O)O[C@H](C)OC(=O)C(C)C` [Compound 148, (R)-1-(isobutyryloxy)ethyl (S)-4-(3-(1,1-dioxido-4-oxo-1,2,5-thiadiazolidin-2-yl)-2-fluoro-4-hydroxyphenyl)-2-isopentyl-2,5-dihydro-1H-pyrrole-1-carboxylate]: the 50% inhibitory concentration (IC50) on PTPN2 and at PTP1B was not above 1000 nM each time.

On to `O=C1CN(c2c(O)ccc(OC3CCNC3)c2F)S(=O)(=O)N1` (stereo not shown) [Compound 142, 5-(2-fluoro-6-hydroxy-3-(pyrrolidin-3-yloxy)phenyl)-1,2,5-thiadiazolidin-3-one 1,1-dioxide], for which the 50% inhibitory concentration (IC50) at PTPN2 was more than 1000 nM; on PTP1B, not above 1000 nM.

Regarding `O=C1CN(c2c(O)ccc(C3=CC(CCC(F)(F)F)NC3)c2F)S(=O)(=O)N1` (stereo not shown) [Compound 133, 5-(2-fluoro-6-hydroxy-3-(5-(3,3,3-trifluoropropyl)-2,5-dihydro-1H-pyrrol-3-yl)phenyl)-1,2,5-thiadiazolidin-3-one 1,1-dioxide], the half-inhibitory concentration (IC50) on PTPN2 and at PTP1B was not above 1000 nM throughout.

For the molecule `CC(C)CC[C@H]1C=C(c2ccc(O)c(N3CC(=O)NS3(=O)=O)c2F)CN1C(=O)O[C@@H](C)OC(=O)C(C)C` [Compound 154, (S)-1-(isobutyryloxy)ethyl (S)-4-(3-(1,1-dioxido-4-oxo-1,2,5-thiadiazolidin-2-yl)-2-fluoro-4-hydroxyphenyl)-2-isopentyl-2,5-dihydro-1H-pyrrole-1-carboxylate], the half-maximal inhibitory concentration (IC50) on PTPN2 and at PTP1B was not above 1000 nM in each case.
